Data published in PubChem BioAssay AID330 (DTP/NCI, 2004).
Several values for one entry are separate records, joined by “and”; a condition that tells them apart may be missing. Equal entries are not always repeated. Toxic doses and inconclusive results are not listed.

Tested on: P388 leukemia ip, CD2F1 mice, survival T/C
Assay: NCI In Vivo Anticancer Drug Screen. Data for tumor model P388 Leukemia (intraperitoneal) in CD2F1 (CDF1) mice
Conditions: endpoint: median survival time, higher = longer survival
Procedure, shortened: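 Mice carrying the transplanted tumor received test compound or vehicle. Survival was recorded in each group, and the value is the treated-group measurement divided by that of the vehicle-treated control group.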

[1] = dose: 6.25 mg/kg/injection, schedule: Q01DX009 (ip), vehicle: Klucel (hydroxypropylcellulose) (HPC)
[2] = dose: 50.0 mg/kg/injection, schedule: Q01DX009 (ip), vehicle: Klucel (hydroxypropylcellulose) (HPC)
[3] = dose: 50.0 mg/kg/injection, schedule: Q01DX005 (ip), vehicle: Klucel (hydroxypropylcellulose) (HPC)
[4] = dose: 100.0 mg/kg/injection, schedule: Q01DX005 (ip), vehicle: Klucel (hydroxypropylcellulose) (HPC)
[5] = dose: 200.0 mg/kg/injection, schedule: Q01DX005 (ip), vehicle: Klucel (hydroxypropylcellulose) (HPC)

C=CC1(C)CCC(C(C)C(=O)/C=C/C(C)(C)O)O1 (configuration not stated)
T/C (dose: 22.0 mg/kg/injection, schedule: Q01DX005 (ip), vehicle: Klucel (hydroxypropylcellulose) (HPC)): 105 % of control | T/C (dose: 44.0 mg/kg/injection, schedule: Q01DX005 (ip), vehicle: Klucel (hydroxypropylcellulose) (HPC)): 113 % of control | T/C (dose: 88.0 mg/kg/injection, schedule: Q01DX005 (ip), vehicle: Klucel (hydroxypropylcellulose) (HPC)): 114 % of control | T/C (dose: 176.0 mg/kg/injection, schedule: Q01DX005 (ip), vehicle: Klucel (hydroxypropylcellulose) (HPC)): 118 % of control

CCN1/C(=C/C=C2\CCC(/C=C/c3sc4ccc(Cl)cc4[n+]3CC)=C2N(c2ccccc2)c2ccccc2)Sc2ccc(Cl)cc21
T/C [1]: 156 % of control | T/C [2]: 107 % of control

Nc1cc(N)n(C2=NCCN2)n1
T/C (dose: 60.0 mg/kg/injection, schedule: Q01DX005 (ip), vehicle: saline): 104 % of control | T/C (dose: 120.0 mg/kg/injection, schedule: Q01DX005 (ip), vehicle: saline): 104 % of control | T/C (dose: 240.0 mg/kg/injection, schedule: Q01DX005 (ip), vehicle: saline): 98 % of control

CC(=O)Nc1scc[n+]1Cc1ccccc1
T/C [3]: 100 % of control | T/C [4]: 100 % of control | T/C [5]: 91 % of control

COC1OC(CS[As](C)C)C(O)C(O)C1O (configuration not stated)
T/C [1]: 95 % of control | T/C (dose: 12.5 mg/kg/injection, schedule: Q01DX009 (ip), vehicle: Klucel (hydroxypropylcellulose) (HPC)): 100 % of control | T/C (dose: 25.0 mg/kg/injection, schedule: Q01DX009 (ip), vehicle: Klucel (hydroxypropylcellulose) (HPC)): 103 % of control | T/C [2]: 106 % of control

COc1cc(CC2COCC2Cc2ccc3c(c2)OCO3)cc(OC)c1OC (configuration not stated)
T/C (dose: 1.25 mg/kg/injection, schedule: Q04DX002 (ip), vehicle: acetone): 101 % of control and 103 % of control | T/C (dose: 2.5 mg/kg/injection, schedule: Q04DX002 (ip), vehicle: acetone): 101 % of control and 96 % of control and 104 % of control | T/C (dose: 5.0 mg/kg/injection, schedule: Q04DX002 (ip), vehicle: acetone): 93 % of control and 96 % of control and 103 % of control

CC(C)C1OC(=O)C=C1Sc1ccccc1 (configuration not stated)
T/C (dose: 50.0 mg/kg/injection, schedule: Q01DX005 (ip), vehicle: saline with Tween-80): 100 % of control | T/C (dose: 100.0 mg/kg/injection, schedule: Q01DX005 (ip), vehicle: saline with Tween-80): 99 % of control | T/C (dose: 200.0 mg/kg/injection, schedule: Q01DX005 (ip), vehicle: saline with Tween-80): 114 % of control

Cc1cc(C)cc(C(N)=O)c1
T/C (dose: 100.0 mg/kg/injection, schedule: Q04DX003 (ip), vehicle: saline): 96 % of control | T/C (dose: 200.0 mg/kg/injection, schedule: Q04DX003 (ip), vehicle: saline): 99 % of control

O=C1NC(=O)C2(N1)C1CCCCC2C(c2ccccc2)NC1c1ccccc1 (configuration not stated)
T/C (dose: 100.0 mg/kg/injection, schedule: Q01DX001 (ip), vehicle: saline with Tween-80): 100 % of control | T/C (dose: 200.0 mg/kg/injection, schedule: Q01DX001 (ip), vehicle: saline with Tween-80): 98 % of control | T/C (dose: 400.0 mg/kg/injection, schedule: Q01DX001 (ip), vehicle: saline with Tween-80): 96 % of control

CCCCNC(=O)C(N)CON (configuration not stated)
T/C (dose: 50.0 mg/kg/injection, schedule: Q01DX005 (ip), vehicle: saline): 106 % of control | T/C (dose: 100.0 mg/kg/injection, schedule: Q01DX005 (ip), vehicle: saline): 113 % of control | T/C (dose: 200.0 mg/kg/injection, schedule: Q01DX005 (ip), vehicle: saline): 106 % of control

N#Cc1[nH]nc(N)c1C#N
T/C (dose: 100.0 mg/kg/injection, schedule: Q01DX001 (ip), vehicle: water): 103 % of control | T/C (dose: 200.0 mg/kg/injection, schedule: Q01DX001 (ip), vehicle: water): 103 % of control | T/C (dose: 400.0 mg/kg/injection, schedule: Q01DX001 (ip), vehicle: water): 98 % of control

O=C1OCc2cc(O)ccc21
T/C [3]: 102 % of control | T/C [4]: 100 % of control | T/C [5]: 104 % of control

c1ccc2c(SCCCCCCCCCSc3c4ccccc4nc4ccccc34)c3ccccc3nc2c1
T/C (dose: 60.0 mg/kg/injection, schedule: Q01DX005 (ip), vehicle: Klucel (hydroxypropylcellulose) (HPC)): 107 % of control | T/C (dose: 120.0 mg/kg/injection, schedule: Q01DX005 (ip), vehicle: Klucel (hydroxypropylcellulose) (HPC)): 104 % of control | T/C (dose: 240.0 mg/kg/injection, schedule: Q01DX005 (ip), vehicle: Klucel (hydroxypropylcellulose) (HPC)): 90 % of control

COC(=O)C1=C(C(=O)OC)P2(C)(C)ON=C(c3c(C)cc(C)cc3C)N2C1(c1ccccc1)c1ccccc1
T/C [3]: 100 % of control and 95 % of control | T/C [4]: 93 % of control | T/C [5]: 91 % of control and 94 % of control
